A short description of data set [1]: Antipyretic effect (yeast- and pyragro-treated rats, rectal temperature). The data set is classed as in vivo, male rats. Conditions: Dosage 40 mg./kg. orally; rectal temperature recorded for 5 hours. The protocol: To test the antipyretic effect, a 15% yeast suspension was administered to male rats each weighing 180 ±10 g. No food was given to the animals, they could consume, however, arbitrary amount of water. 16 hours after the administration of yeast the rectal temperature of the animals was taken, and the animals were treated with pyragro in an intravenous dosage of 50 M bact./animal. The compound to be tested was administered orally into the animals, thereafter the change in rectal temperature both for the treated and the control animals was recorded for 5 hours, using an "Elab" type electrothermometer. Phenacetine, used as reference substance, and the compounds of the invention were administered in dosages of 40 mg./kg. body weight.

A further data set can be described thus: LD50 (acute toxicity). Conditions: in vivo, po.
The next data set relates to liver microsomal enzymes. As to the kind of experiment: Enzyme inductive effect (shortening of duration of sleeping after hexobarbital). The data set is classed as in vivo, Wistar female rats. Conditions: for Average duration of sleeping ± S.E.: Dosage 60 mg./kg. p.o., hexobarbital 40 mg./kg. i.v. 24 hours later, control 27.4 ± 3.02. The protocol: To investigate the enzyme inductive effect, Wistar female rats, each weighing 40 to 50 g. were treated with pure solvent, or with a dosage of 60 mg./kg. of phenobarbital or the compound to be tested, respectively. 24 hours after this treatment 40 mg./kg. of hexobarbital were administered intravenously into the animals. The decrease of the elimination period and the liver enzyme induction was expressed as the shortening of duration of sleeping.

Data set [2] can be described thus: Harmful effects on the kidneys. Type of data set: in vivo. Conditions: in words, compared with phenacetine.
A further data set relates to yohimbine lethality. The data set is described as follows: Potentiation of yohimbine lethality. Type of data set: in vivo, CFLP male mice. The protocol:
To investigate the yohimbine-potentiating effect, CFLP male mice each weighing 20 to 25 g. were treated orally with the compounds according to the invention, and 1 hour after this treatment yohimbine was injected subcutaneously into the animals in a dosage of 20 mg./kg.

Data set [3] can be described thus: Rotarod / ataxis and reflex retardation. Background: In the rotarod test animals must keep their balance on a rotating rod.
A short description of data set [4]: Effect on the central nervous system. Type of data set: in vivo. The settings on record: in words.

Some results are limits rather than exact numbers.

Usually LD50 stands for the dose at which mortality reaches 50%. The low end stands for greater toxicity, the high end for lower toxicity. What is called ED50 is the dose at which the effect has come halfway, by size or by number of responders.

`CCOc1ccc(NC(C)=O)cc1` [Phenacetine, reference compound]: the Decrease of temperature in data set [1] is -1.0 °C. In addition, in the data set “LD50 (acute toxicity)”, the LD50 amounted to 2400 mg/kg.

As for `CCC1(c2ccccc2)C(=O)NC(=O)NC1=O` [Phenobarbital, reference compound], the “Average duration of sleeping ± S.E.” value with liver microsomal enzymes amounted to 5.4 ± 1.63 min. The same molecule came in with a median lethal dose (LD50) in “LD50 (acute toxicity)” of 240 mg/kg.

Regarding `CCCCCCCCCCCCCCCC(=O)Nc1cc(C(=O)c2ccccc2)ccc1N1CCOCC1` [C12, 3-palmitoylamino-4-morpholino-benzophenone], the “Average duration of sleeping ± S.E.” value with liver microsomal enzymes came to 10.4 ± 1.02 min. Also, in “LD50 (acute toxicity)”, the median lethal dose (LD50) is greater than 500 mg/kg.

`CCN(c1ccccc1)c1ccc(C(=O)c2ccccc2)cc1N` [C6, 3-amino-4-(N-ethyl-N-phenylamino)-benzophenone]: the “Average duration of sleeping ± S.E.” value in the data set on liver microsomal enzymes is 11.6 ± 2.71 min. In “LD50 (acute toxicity)”, this molecule came in with an LD50 greater than 400 mg/kg.

In data set [1], `Nc1cc(C(=O)c2ccccc2)ccc1N1CCOCC1` [C8, 3-amino-4-morpholino-benzophenone] had a Decrease of temperature of -1.0 °C. The “harmful effects on the kidneys” value in data set [2] is reported as “no harmful effects on the kidneys”. The molecule further gave an LD50 in “LD50 (acute toxicity)” greater than 3000 mg/kg.

For `CN1CCN(c2ccc(C(=O)c3ccccc3)cc2N)CC1` [C3, 3-amino-4-(N-methyl-piperazino)-benzophenone], the ED50 in the data set on yohimbine lethality (Mus musculus, sc, yohimbine 20 mg./kg. s.c. 1 hour after treatment, deaths counted at 24 hours, probit analysis) was determined as 30 mg/kg. In addition, the “antidepressant activity / yohimbine lethality increasing effect (in words)” value in the data set with yohimbine lethality (compared with imipramine where stated) is on record as “inferior in antidepressant activity to imipramine”. Besides, the TD50 in “in vivo” amounted to 160 mg/kg. In “LD50 (acute toxicity)”, this molecule returned an LD50 greater than 3000 mg/kg. In data set [3] (in the active dosage), the “ataxis or reflex retardation” value is “causes no ataxis or reflex retardation”.

For `CN(C)CCCN1c2ccccc2CCc2ccccc21` [Imipramine, 5-(3-dimethylaminopropyl)-10,11-dihydro-5H-dibenz(b,f)azepin, reference compound], the TD50 in data set [3] (rotarod) is 28 mg/kg.

On to `CC(C)CN(CC(C)C)c1ccc(C(=O)c2ccccc2)cc1N` [C7, 3-amino-4-(N,N-diisobutylamino)-benzophenone], for which the “Average duration of sleeping ± S.E.” value with liver microsomal enzymes is 10.0 ± 1.92 min. The same molecule yielded an LD50 in the data set “LD50 (acute toxicity)” greater than 600 mg/kg.

On to `CCC(=O)Nc1cc(C(=O)c2ccccc2)ccc1N1CCOCC1.Cl` [C11, 3-propionylamino-4-morpholino-benzophenone HCl], for which the “Average duration of sleeping ± S.E.” value in the data set with liver microsomal enzymes was found to be 9.0 ± 1.30 min. For the same molecule, the “enzyme-inducing effect (in words)” value with liver microsomal enzymes (compared with phenobarbital where stated) was “the same in strength as for phenobarbital”. Also, the “effect on the central nervous system” value in data set [4] is “no effect on the central nervous system”. In addition, the 50% lethal dose (LD50) in “LD50 (acute toxicity)” was greater than 450 mg/kg.

(Values after US3989701A, “Diamine-benzophenones and a process for the preparation thereof” (Richter Gedeon Vegyeszeti Gyar Rt., priority 1973, dated 1976).)
